Experimental data from patent US7772260B2, “Imidazo[2,1-b]-1,3,4-thiadiazole sulfonamides” (Aegera Therapeutics Inc., priority 2001, dated 2010).
Entries after “also recorded” stand apart in the source; their conditions may differ.

Tests used:
[1] = tested on: SCG neurons; experiment: Protection of SCG neurons from anti-NGF killing; assay type: cell-based, Sprague Dawley rats; conditions: Rattus norvegicus, Neuron; anti-NGF antibody, serum and NGF free 48 hours, Alamar Blue; +/−1 uM; read-out: IC(50), rescue from anti-NGF killing of SCG neurons
Description: Neurotrophins are critical to the growth, development, and survival of small fiber neurons of the PNS. SCG neurons are neurons of the PNS that undergo apoptosis upon NGF withdrawal. In a typical experiment SCG neurons are cultured in the presence of NGF, which induces survival and neurite out-growth. After 5 days the NGF is removed by either the addition of anti-NGF polyclonal antibody (Sigma) or by repeated washings (4 times) with NGF free media, resulting in the apoptosis of up to 90% of the neurons after 48 hours, as measured by MTS staining.
After 4 days the cells were treated with anti-NGF antibody (Sigma). At this time compound was added and the cells were maintained serum and NGF free for 48 hours, at which time viability was assessed using Alamar Blue (Medicorp) staining.

[2] = tested on: SCG neurons; experiment: cells; assay type: cell-based, Sprague Dawley rats; conditions: for IC50: Rattus norvegicus, Neuron
[3] = tested on: SCG neurons; experiment: In vitro protection of SCG neurons from vincristine killing; assay type: cell-based, Sprague Dawley rats; conditions: Rattus norvegicus, Neuron; vincristine (50 ng/mL), 48 hours, MTS; ±1 μM; read-out: IC50, protection of SCG neurons against Vincristine killing
Text: Similarly, vincristine and vinblastine are commonly used anti-tumour agents whose mode of action involve tubulin binding.

[4] = tested on: human ovarian carcinoma cells (OV2008); experiment: Co-treatment of OV2008 cell line with Taxol and compound 1; assay type: cell-based; conditions: Taxol™ (50 nM) + compound at 5, 10, 20 uM; Taxol™ and/or cisplatin
Description: H460 and OV2008 cells were plated and incubated for 48 hours. Compound 1 and/or compound 1 and Taxol™ were added. Viability was determined after 24 hours, staining with MTT (Promega).
FIG. 3 illustrates the co-treatment of H460 and OV 2008 cell lines with Taxol™ and compound 1. H460 lung carcinoma and OV2008 ovarian carcinoma cells were treated with Taxol™ (50 nM) and/or Taxol™ (50 nM)+compound 1 (noted as AEG 03482) at levels of 5, 10, and 20 uM.

[5] = tested on: retinal ganglion (RG) neurons; experiment: Optical stroke model; assay type: in vivo, rat
Text: Various diseases which result in loss of vision are related to increased inter-ocular pressure and ocular stroke or ischemia. Loss of the retinal ganglion (RG) occur during ischemic insult and in diseases such as diabetes and glaucoma. A model of inter-ocular ischemia involves an invasive increase in ocular pressure which results in the collapse of the central retinal artery. Retinal ischemia is confirmed by whitening of the iris and loss of red reflex. The inter-ocular pressure is normalized after 30 minutes. This procedure is performed on the right eye and the left eye serves as a control. Compound was given either by intra-vitrial injection or via SC injections at 10 mg/kg (see Example 162).
The right eye of each rat was dilated fully using 1% tropacamide and 2% pheylephrine hydrochloride (Alcon Canada). A single drop of 0.5% proparacaine (Alcon) was used as a topical anesthetic. The anterior chamber of the right eye was cannulated with a 30-gauge needle connected to a saline reservoir and a manometer to monitor intraocular pressure. Intraocular pressure was raised to 110 mm Hg by raising the saline reservoir for 60 minutes. This increase in pressure collapses the central retinal artery. […] Optical function after 24 hrs, 28 hrs and 7 days was assessed using ERG measurements and histological staining of the RG layer.

[6] = target: CA II (Homo sapiens, UniProt P00918); experiment: CA II inhibition; assay type: biochemical; conditions: read-out: CAII(50)
Description: CA II inhabition was measured using the protocol described by Pocker, Y.'Stone, J. Biochemistry 1967, 6, 668.

[7] = tested on: Erk; experiment: Erk activity in PC12 cells and sympathetic neurons; assay type: cell-based; conditions: PC12 cells and primary cultures of sympathetic neurons
Text: (§1) Additionally, the Erks protect cultured neurons from a number of insults including neurotrophin withdrawal (Bonni, A., et al., Science, 1999, 286, 1358-1362). […] Compound 1, therefore, protects neurons by activating a subset of NGF-stimulated signaling pathways.

[8] = tested on: Akt; experiment: Akt activity in PC12 cells and SCGs; assay type: cell-based
Text: as §1

[9] = Acute toxicity studies with compound 1 alone; assay type: in vivo; conditions: compound alone, 1, 5, and 10 mg/kg for 3 weeks
Description: Male Spraugue Dawley rats were treated with 50% HPDC vehicle (veh/veh), compound I dissolved in 50% HPDC at 1, 5, or 10 mg/kg (veh/1, veh/5, veh/10, respectively), or Taxol™ (9 mg/kg)+compound 1 dissolved in 50% HPDC at 1, 5, and 10 mg/kg (Tax/1, Tax/5, Tax/10) according to the dosing regime described in Example 160. Weight measurements were made ever other day.

[10] = tested on: SCG neurons; experiment: cells; conditions: Rattus norvegicus, Neuron, 48 h, read-out: IC50, protection of SCG neurons against cisplatin killing

**Q.** What does the source list for `NS(=O)(=O)c1nn2cc(-c3ccccc3)nc2s1` [Compound 1, 6-Phenylimidazo[2,1-b]-1,3,4-thiadiazole-2-sulfonamide]?
**A.** IC50 [1]: 22 µM; protection against Taxol™ induced killing ([2]; 10 uM, Taxol™ 50 ng/mL, MTS): 100%; IC50 ([2]; Taxol™ (50 ng/mL), viability 48 hours later, MTS, read-out: IC(50), protection of SCG neurons from Taxol killing): 7 µM; IC50 ([2]; read-out: IC(50) against Taxol killing of SCGs): 7 µM; IC50 [3]: 10 µM; protection of OV2008 cells from Taxol™ induced apoptosis [4]: no protection; also recorded: did not protect; protection of RG population / ERG conductance after ocular stroke ([5]; given post stroke, intravitreally then daily injections for 1 week): protects the RG population allowing for normal conductance; histology of the RG layer ([5]; intra-vitrial injection or SC): healthy RG layers; IC50 [6]: 0.25 µM; Erk activity [7]: dramatic increase; activity of Akt [8]: remained unchanged; acute signs of toxicity [9]: No acute signs of toxicity; IC50 [10]: 5 µM
